Data on 22 compounds can be found in patent US11505536B2, “Dihydroorotate dehydrogenase inhibitors” (Janssen Biotech, Inc., priority 2019, dated 2022).

Molecules are shown by their SMILES.

For one assay, the target named is human DHODH (Homo sapiens (Human), UniProt Q02127). The assay is described as follows: DHODH Enzymatic Assay. Conditions: purified human DHODH, DCIP absorbance, end-point mode; read-out: hDHODH IC50. The assay is classed as biochemical. The procedure:
The following assay is referred to herein as the “DHODH Enzymatic Assay.” To detect DHODH enzyme activities, dichloroindophenol (DCIP) is added as the final electron acceptor in the assay. DCIP can accept electrons from the reduced coenzyme Q generated in the assay, or from dihydroorotate (DHO) via FMN by binding presumably to the ubiquinone pocket. DCIP solutions are blue, with an intense absorbance around 600 nm, but becomes colorless upon reduction (J. Biol. Chem. (1986) 261, 11386). The assay buffer contained […], pH 7.5, 150 mM NaCl, 0.5 mM EDTA, and 0.1% Triton X-100 in MilliQ water. Substrate consisting of 20 mM DHO, 5 mM CoQ6, and 1 mM DCIP in assay buffer, initiates the reaction. The assay is run in end-point mode by quenching the reaction with the potent DHODH inhibitor brequinar. Absorbance measurements were obtained using the BMG Phera Star plate-reading spectrophotomer. Purified human DHODH was purchased from Proteros (cat. No. PR-0044). Chemicals were purchased from Sigma-Aldrich, Teknova, and Avanti Polar Lipids. Liquid handling was performed using Labcyte Echo and Formulatrix Tempest.

Assay [1] deals with MOLM-13 cells (human acute myeloid leukemia cells). Briefly: MOLM-13 Cellular Assay. The assay is classed as cell-based. The settings on record: Homo sapiens, MOLM-13, 72 h, 72 hours exposure, cell viability by CellTiter-Glo. As to the method: The following assay is referred to herein as the “MOLM-13 Cellular Assay.” MOLM-13 cells (human acute myeloid leukemia cells) were obtained from DSMZ and were maintained in RPMI 1640+Glutamax+25 mM HEPES (Invitrogen, catalog number 72400) supplemented with 10% heat inactivated fetal bovine serum (FBS; Invitrogen, catalog number 16140). The day prior to assay set-up, cells were pelleted, resuspended in fresh media, counted, and cells were plated at 0.4×10^6 cell/mL in a T150 flask. On the day of the assay, cells were pelleted, resuspend in fresh media, counted and seeded at 5,000 cells/well in white opaque 96-well tissue culture treated microplates (Perkin Elmer, catalog number 6005680). Cells were exposed to different concentrations of test compounds at 37° C., 5% CO2 for 72 hours immediately after seeding. Cell viability was acquired on a Perkin Elmer Envision 2104 multilabel reader using the CellTiter-Glo assay (Promega) according to the manufacturer's instructions.
(In general: ATP-based viability assays read luminescence as a measure of living cells.)

human DHODH, sequence (Q02127 whole entry): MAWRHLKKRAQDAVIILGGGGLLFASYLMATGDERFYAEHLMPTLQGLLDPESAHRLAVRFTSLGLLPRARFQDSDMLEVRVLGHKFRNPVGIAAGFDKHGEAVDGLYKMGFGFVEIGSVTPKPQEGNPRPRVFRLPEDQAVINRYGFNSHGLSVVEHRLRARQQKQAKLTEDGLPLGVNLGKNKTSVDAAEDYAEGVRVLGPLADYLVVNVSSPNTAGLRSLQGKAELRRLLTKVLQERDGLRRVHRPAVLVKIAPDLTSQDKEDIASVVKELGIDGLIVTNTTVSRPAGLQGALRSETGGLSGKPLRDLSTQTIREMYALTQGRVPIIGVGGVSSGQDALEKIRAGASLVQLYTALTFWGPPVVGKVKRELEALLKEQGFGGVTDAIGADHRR

As to `CCn1c(CO)nn(-c2cc3c(C(C)C)cn([C@@H]4CCC[C@H]4C)c(=O)c3cc2F)c1=O` (stereo in doubt) [Example 123, 6-(4-Ethyl-3-(hydroxymethyl)-5-oxo-4,5-dihydro-1H-1,2,4-triazol-1-yl)-7-fluoro-4-isopropyl-2-((1R*,2R*)-2-methylcyclopentyl)isoquinolin-1(2H)-one], the IC50 is 16.8 nM at human DHODH and 9 nM in assay [1]. Taken in the same sequence, the figures for `C=C(C)c1cn(-c2cccc(OC)c2Cl)c(=O)c2cc(F)c(-n3nc(CO)n(CC)c3=O)cc12` [Example 70, 2-(2-Chloro-3-methoxyphenyl)-6-(4-ethyl-3-(hydroxymethyl)-5-oxo-4,5-dihydro-1H-1,2,4-triazol-1-yl)-7-fluoro-4-(prop-1-en-2-yl)isoquinolin-1(2H)-one] were 0.24 nM and 0.4 nM. On to `CCn1c(CO)nn(-c2cc3c(C(C)C)cn(-c4cc(C)ccc4C)c(=O)c3cc2F)c1=O` [Example 75, 2-(2,5-Dimethylphenyl)-6-(4-ethyl-3-(hydroxymethyl)-5-oxo-4,5-dihydro-1H-1,2,4-triazol-1-yl)-7-fluoro-4-isopropylisoquinolin-1(2H)-one], for which the IC50 on human DHODH stood at 0.58 nM; in assay [1], 1 nM.

With `C=C(C)c1cn(-c2cc(F)ccc2F)c(=O)c2cc(F)c(-n3nc(CO)n(CC)c3=O)cc12` [Example 72, 2-(2,5-Difluorophenyl)-6-(4-ethyl-3-(hydroxymethyl)-5-oxo-4,5-dihydro-1H-1,2,4-triazol-1-yl)-7-fluoro-4-(prop-1-en-2-yl)isoquinolin-1(2H)-one], the results for the IC50 (at human DHODH; in assay [1]) were 0.946 nM and 2 nM, respectively. As for `CCn1c(CO)nn(-c2cc3c(C(C)C)cn(-c4ncccc4C)c(=O)c3cc2F)c1=O` [Example 118, 6-(4-Ethyl-3-(hydroxymethyl)-5-oxo-4,5-dihydro-1H-1,2,4-triazol-1-yl)-7-fluoro-4-isopropyl-2-(3-methylpyridin-2-yl)isoquinolin-1(2H)-one], the figures for the IC50 (at human DHODH; in assay [1]) were 14.8 nM and 10 nM, respectively.

`CCn1c(CO)nn(-c2cc3c(C(C)C)cn(-c4c(C)n[nH]c4Cl)c(=O)c3cc2F)c1=O` [Example 31, 2-(5-Chloro-3-methyl-1H-pyrazol-4-yl)-6-(4-ethyl-3-(hydroxymethyl)-5-oxo-4,5-dihydro-1H-1,2,4-triazol-1-yl)-7-fluoro-4-isopropylisoquinolin-1(2H)-one]: the IC50 worked out at 0.764 nM at human DHODH and 6 nM in assay [1]. Take `CCn1c(CO)nn(-c2cc3c(C(C)C)cn(-c4cnccc4C)c(=O)c3cc2F)c1=O` [Example 136, 6-(4-Ethyl-3-(hydroxymethyl)-5-oxo-4,5-dihydro-1H-1,2,4-triazol-1-yl)-7-fluoro-4-isopropyl-2-(4-methylpyridin-3-yl)isoquinolin-1(2H)-one]: the IC50 on human DHODH stood at 4.79 nM; in assay [1] it was 8 nM. Regarding `CCn1c(CO)nn(-c2cc3c(C(C)C)cn([C@H]4CCCC[C@H]4C)c(=O)c3cc2F)c1=O` [Example 114, 6-(4-Ethyl-3-(hydroxymethyl)-5-oxo-4,5-dihydro-1H-1,2,4-triazol-1-yl)-7-fluoro-4-isopropyl-2-((1S,2R)-2-methylcyclohexyl)isoquinolin-1(2H)-one], the IC50 on human DHODH was determined as 11.6 nM; in assay [1] it was 3 nM. On to `C=C(c1cn(-c2ccccc2C)c(=O)c2cc(F)c(-n3nc(CO)n(CC)c3=O)cc12)C(F)(F)F` [Example 81, 6-(4-Ethyl-3-(hydroxymethyl)-5-oxo-4,5-dihydro-1H-1,2,4-triazol-1-yl)-7-fluoro-2-(o-tolyl)-4-(3,3,3-trifluoroprop-1-en-2-yl)isoquinolin-1(2H)-one], for which the IC50 was determined as 0.226 nM on human DHODH and 0.3 nM in assay [1]. As for `CCn1c(CO)nn(-c2cc3c(C(C)C)cn([C@H]4CCC[C@@H]4C)c(=O)c3cc2F)c1=O` (stereo in doubt) [Example 124, 6-(4-Ethyl-3-(hydroxymethyl)-5-oxo-4,5-dihydro-1H-1,2,4-triazol-1-yl)-7-fluoro-4-isopropyl-2-((1S*,2S*)-2-methylcyclopentyl)isoquinolin-1(2H)-one], the IC50 on human DHODH amounted to 1.36 nM; in assay [1], 0.9 nM.

Turning to `CCn1c(CO)nn(-c2nc3c([C@@H](C)C(F)(F)F)cn(-c4ccccc4C)c(=O)c3cc2F)c1=O` [Example 38, (R)-2-(4-Ethyl-3-(hydroxymethyl)-5-oxo-4,5-dihydro-1H-1,2,4-triazol-1-yl)-3-fluoro-6-(o-tolyl)-8-(1,1,1-trifluoropropan-2-yl)-1,6-naphthyridin-5(6H)-one], the IC50 on human DHODH was determined as 0.464 nM; in assay [1] it was 0.5 nM. Taken in the same sequence, the figures for `CCn1c(CO)nn(-c2cc3c(C(C)C)cn([C@@H]4CCCC[C@@H]4C)c(=O)c3cc2F)c1=O` [Example 111, 6-(4-Ethyl-3-(hydroxymethyl)-5-oxo-4,5-dihydro-1H-1,2,4-triazol-1-yl)-7-fluoro-4-isopropyl-2-((1R,2S)-2-methylcyclohexyl)isoquinolin-1(2H)-one] were 3.54 nM and 0.7 nM. In turn, `CCn1c(CO)nn(-c2cc3c(C(C)C)cn(-c4ccccc4Cl)c(=O)c3cc2F)c1=O` [Example 117, 2-(2-Chlorophenyl)-6-(4-ethyl-3-(hydroxymethyl)-5-oxo-4,5-dihydro-1H-1,2,4-triazol-1-yl)-7-fluoro-4-isopropylisoquinolin-1(2H)-one] gave an IC50 in assay [1] of 0.3 nM. Same read-out and setting: the value for `CCn1c(CO)nn(-c2nc3c(C(C)C)cn(-c4ccccc4C(F)(F)F)c(=O)c3cc2F)c1=O` [Example 133, 2-(4-Ethyl-3-(hydroxymethyl)-5-oxo-4,5-dihydro-1H-1,2,4-triazol-1-yl)-3-fluoro-8-isopropyl-6-(2-(trifluoromethyl)phenyl)-1,6-naphthyridin-5(6H)-one] was 2 nM.

Take `CCn1c(CO)nn(-c2ccc3c(=O)n(-c4cccc(F)c4)cc(C(C)(C)O)c3c2)c1=O` [Example 25, 6-(4-Ethyl-3-(hydroxymethyl)-5-oxo-4,5-dihydro-1H-1,2,4-triazol-1-yl)-2-(3-fluorophenyl)-4-(2-hydroxypropan-2-yl)isoquinolin-1(2H)-one]: the IC50 at human DHODH is 4260 nM. Consider `C=C(C)c1nn(-c2c(F)cccc2Cl)c(=O)c2cc(-n3nc(CO)n(CC)c3=O)c(OC)cc12` [Example 30, 2-(2-Chloro-6-fluorophenyl)-7-(4-ethyl-3-(hydroxymethyl)-5-oxo-4,5-dihydro-1H-1,2,4-triazol-1-yl)-6-methoxy-4-(prop-1-en-2-yl)phthalazin-1(2H)-one], for which, on human DHODH, the half-inhibitory concentration (IC50) was found to be 3480 nM. Still for that read-out and setting: the value for `C=C(C)c1nn(-c2c(F)cccc2Cl)c(=O)c2cc(-n3nc(CO)n(CC)c3=O)c(F)cc12` [Example 28, 2-(2-Chloro-6-fluorophenyl)-7-(4-ethyl-3-(hydroxymethyl)-5-oxo-4,5-dihydro-1H-1,2,4-triazol-1-yl)-6-fluoro-4-(prop-1-en-2-yl)phthalazin-1(2H)-one] was 5.03 nM. In the case of `C=C(C)c1nn(-c2c(F)cccc2Cl)c(=O)c2cc(OC)c(-n3nc(CO)n(CC)c3=O)cc12` [Example 29, 2-(2-Chloro-6-fluorophenyl)-6-(4-ethyl-3-(hydroxymethyl)-5-oxo-4,5-dihydro-1H-1,2,4-triazol-1-yl)-7-methoxy-4-(prop-1-en-2-yl)phthalazin-1(2H)-one], the IC50 on human DHODH was 82.6 nM.

`CCn1c(CO)nn(-c2cc3c(C(C)C)cn(-c4nc(C)ccc4C)c(=O)c3cc2F)c1=O` [Example 134, 2-(3,6-Dimethylpyridin-2-yl)-6-(4-ethyl-3-(hydroxymethyl)-5-oxo-4,5-dihydro-1H-1,2,4-triazol-1-yl)-7-fluoro-4-isopropylisoquinolin-1(2H)-one]: the IC50 in assay [1] was found to be 8 nM. `C=C(C)c1nn(-c2c(F)cccc2Cl)c(=O)c2cc(F)c(-n3nc(CO)n(CC)c3=O)cc12` [Example 27, 2-(2-Chloro-6-fluorophenyl)-6-(4-ethyl-3-(hydroxymethyl)-5-oxo-4,5-dihydro-1H-1,2,4-triazol-1-yl)-7-fluoro-4-(prop-1-en-2-yl)phthalazin-1(2H)-one]: the half-inhibitory concentration (IC50) at human DHODH was determined as 0.32 nM. Same read-out and setting: the value for `C=C(C)c1cn(-c2cc(F)ccc2C)c(=O)c2cc(F)c(-n3nc(CO)n(CC)c3=O)cc12` [Example 82, 6-(4-Ethyl-3-(hydroxymethyl)-5-oxo-4,5-dihydro-1H-1,2,4-triazol-1-yl)-7-fluoro-2-(5-fluoro-2-methylphenyl)-4-(prop-1-en-2-yl)isoquinolin-1(2H)-one] was 0.249 nM; that for `CCn1c(CO)nn(-c2cc3c(C(C)C)cn(-c4cccnc4OC)c(=O)c3cc2F)c1=O` [Example 90, 6-(4-Ethyl-3-(hydroxymethyl)-5-oxo-4,5-dihydro-1H-1,2,4-triazol-1-yl)-7-fluoro-4-isopropyl-2-(2-methoxypyridin-3-yl)isoquinolin-1(2H)-one] was 20.7 nM.

In general, IC50 refers to the point on the concentration scale where inhibition reaches its midpoint.
